# Measurements as given in US7964607B2, “Pyrazolo[3,4-d]pyrimidine compounds” (Pfizer Inc., priority 2007, dated 2011).
# Biological target: T1, human recombinant PDE9 enzyme (Homo sapiens, UniProt O76083)
# T1 construct: made in house; host or cells: SF-9 insect cells
# Assay: Phosphodiesterase 9 (PDE9) inhibitory activity, Scintillation Proximity (SPA) assay
# Format: biochemical
# Conditions: human recombinant PDE9 from SF-9 cells; 50 nM [3H]cGMP; room temperature, 30 min; additional compounds Ex. 115-228; read-out: G5678A (U):IC50
# Experimental: Phosphodiesterase 9 (PDE9) Inhibitory Activity The PDE9 assay was performed using the Phosphodiesterase Scintillation Proximity (SPA) assay (GE Healthcare Life Sciences). […] The human recombinant PDE9 enzyme was generated in SF-9 cells, the cell pellets were sonicated in buffer (20 mM TRIS, 2 mM benzamidine, 1 mM EDTA, 250 mM sucrose, 100 μM PMSF, pH 7.5 with HCl), centrifuged at 40,000×g for 20 min at 4° C. The supernatants were stored at −80° C. […] Test compounds were dissolved in DMSO, diluted in DI H2O and serially diluted in 20% DMSO/80% H2O, for a final concentration of 2% DMSO. For the assay the PDE9 was diluted with assay buffer such that 20% or less of the substrate was hydrolyzed to 5′GMP. Each assay well contained 10 μl of test compound or solvent, 40 μl of [^3H]CGMP and 50 μl of enzyme, background was determined by a high concentration of a PDE inhibitor. The assay was initiated with the addition of the enzyme and carried out at room temperature for 30 min. […] The plates were sealed, vortexed, allowed to set for >300 min, then counted in a Wallac TriLux MicroBeta LSC.
# T1 sequence (O76083 whole entry): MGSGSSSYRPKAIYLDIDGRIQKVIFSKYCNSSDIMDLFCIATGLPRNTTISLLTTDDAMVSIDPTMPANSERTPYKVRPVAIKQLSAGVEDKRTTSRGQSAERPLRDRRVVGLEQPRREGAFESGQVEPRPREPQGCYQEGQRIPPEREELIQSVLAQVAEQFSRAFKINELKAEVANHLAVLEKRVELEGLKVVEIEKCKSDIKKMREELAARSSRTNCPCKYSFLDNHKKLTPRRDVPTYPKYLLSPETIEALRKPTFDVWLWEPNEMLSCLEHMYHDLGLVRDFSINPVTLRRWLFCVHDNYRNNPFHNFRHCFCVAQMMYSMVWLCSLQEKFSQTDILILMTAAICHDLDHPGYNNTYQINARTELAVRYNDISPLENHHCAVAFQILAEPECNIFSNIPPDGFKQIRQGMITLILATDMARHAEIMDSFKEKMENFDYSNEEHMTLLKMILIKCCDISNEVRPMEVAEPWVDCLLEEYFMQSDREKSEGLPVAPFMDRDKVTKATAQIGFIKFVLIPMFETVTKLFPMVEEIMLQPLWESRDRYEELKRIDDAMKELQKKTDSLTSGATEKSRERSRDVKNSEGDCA
row,SMILES,IC50
1,"Cc1cccc(CN2C[C@@H](C)[C@H](c3nc4c(cnn4C4CCCC4)c(=O)[nH]3)C2)c1C (racemic) [Example 118, 1-cyclopentyl-6-[(3,4-trans)-1-(2,3-dimethylbenzyl)-4-methylpyrrolidin-3-yl]-1,5-dihydro-4H-pyrazolo[3,4-d]pyrimidin-4-one]",74 nM
2,"C[C@@H]1CN(Cc2ccccc2OC(F)F)C[C@H]1c1nc2c(cnn2C2CCCC2)c(=O)[nH]1 (racemic) [Example 119, 1-cyclopentyl-6-{(3,4-trans)-1-[2-(difluoromethoxy)benzyl]-4-methylpyrrolidin-3-yl}-1,5-dihydro-4H-pyrazolo[3,4-d]pyrimidin-4-one]",32.8 nM
3,"CCOc1ncccc1CN1C[C@@H](C)[C@H](c2nc3c(cnn3C3CCCC3)c(=O)[nH]2)C1 (racemic) [Example 120, 1-cyclopentyl-6-{(3,4-trans)-1-[(2-ethoxypyridin-3-yl)methyl]-4-methylpyrrolidin-3-yl}-1,5-dihydro-4H-pyrazolo[3,4-d]pyrimidin-4-one]",62.7 nM
4,"C[C@@H]1CN(Cc2cnn3c2CCCC3)C[C@H]1c1nc2c(cnn2C2CCCC2)c(=O)[nH]1 (racemic) [Example 121, 1-cyclopentyl-6-[(3,4-trans)-4-methyl-1-(4,5,6,7-tetrahydropyrazolo[1,5-a]pyridin-3-ylmethyl)pyrrolidin-3-yl]-1,5-dihydro-4H-pyrazolo[3,4-d]pyrimidin-4-one]",83.9 nM
5,"C[C@@H]1CN(Cc2ccc3c(c2)OCCO3)C[C@H]1c1nc2c(cnn2C2CCCC2)c(=O)[nH]1 (racemic) [Example 122, 1-cyclopentyl-6-[(3,4-trans)-1-(2-3-dihydro-1,4-benzodioxin-6-ylmethyl)-4-methylpyrrolidin-3-yl]-1,5-dihydro-4H-pyrazolo[3,4-d]pyrimidin-4-one]",56.4 nM
6,"C[C@@H]1CN(Cc2ccc(-n3ccnc3)cc2)C[C@H]1c1nc2c(cnn2C2CCCC2)c(=O)[nH]1 (racemic) [Example 123, 1-cyclopentyl-6-{(3,4-trans)-1-[4-(1H-imidazol-1-yl)benzyl]-4-methylpyrrolidin-3-yl}-1,5-dihydro-4H-pyrazolo[3,4-d]pyrimidin-4-one]",39.3 nM
7,"C[C@@H]1CN(Cc2cc(Cl)ccc2Cl)C[C@H]1c1nc2c(cnn2C2CCCC2)c(=O)[nH]1 (racemic) [Example 124, 1-cyclopentyl-6-[(3,4-trans)-1-(2,5-dichlorobenzyl)-4-methylpyrrolidin-3-yl]-1,5-dihydro-4H-pyrazolo[3,4-d]pyrimidin-4-one]",80.9 nM
8,"COc1ccc(CN2C[C@@H](C)[C@H](c3nc4c(cnn4C4CCCC4)c(=O)[nH]3)C2)cc1C (racemic) [Example 125, 1-cyclopentyl-6-[(3,4-trans)-1-(4-methoxy-3-methylbenzyl)-4-methylpyrrolidin-3-yl]-1,5-dihydro-4H-pyrazolo[3,4-d]pyrimidin-4-one]",55.2 nM
9,"C[C@@H]1CN(Cc2cccc3c2OCC3)C[C@H]1c1nc2c(cnn2C2CCCC2)c(=O)[nH]1 (racemic) [Example 126, 1-cyclopentyl-6-[(3,4-trans)-1-(2,3-dihydro-1-benzofuran-7-ylmethyl)-4-methylpyrrolidin-3-yl]-1,5-dihydro-4H-pyrazolo[3,4-d]pyrimidin-4-one]",88.7 nM
10,"C[C@@H]1CN(Cc2cccc(F)c2F)C[C@H]1c1nc2c(cnn2C2CCCC2)c(=O)[nH]1 (racemic) [Example 127, 1-cyclopentyl-6-[(3,4-trans)-1-(2,3-difluorobenzyl)-4-methylpyrrolidin-3-yl]-1,5-dihydro-4H-pyrazolo[3,4-d]pyrimidin-4-one]",61.7 nM
11,"COc1ccc(F)cc1CN1C[C@@H](C)[C@H](c2nc3c(cnn3C3CCCC3)c(=O)[nH]2)C1 (racemic) [Example 128, 1-cyclopentyl-6-[(3,4-trans)-1-(5-fluoro-2-methoxybenzyl)-4-methylpyrrolidin-3-yl]-1,5-dihydro-4H-pyrazolo[3,4-d]pyrimidin-4-one]",70.9 nM
12,"COc1ccc(CN2C[C@@H](C)[C@H](c3nc4c(cnn4C4CCCC4)c(=O)[nH]3)C2)c(F)c1 (racemic) [Example 129, 1-cyclopentyl-6-[(3,4-trans)-1-(2-fluoro-4-methoxybenzyl)-4-methylpyrrolidin-3-yl]-1,5-dihydro-4H-pyrazolo[3,4-d]pyrimidin-4-one]",71.8 nM
13,"Cc1ccc(CN2C[C@@H](C)[C@H](c3nc4c(cnn4C4CCCC4)c(=O)[nH]3)C2)cc1F (racemic) [Example 130, 1-cyclopentyl-6-[(3,4-trans)-1-(3-fluoro-4-methylbenzyl)-4-methylpyrrolidin-3-yl]-1,5-dihydro-4H-pyrazolo[3,4-d]pyrimidin-4-one]",60 nM
14,"Cc1ncc(CN2C[C@@H](C)[C@H](c3nc4c(cnn4C4CCCC4)c(=O)[nH]3)C2)s1 (racemic) [Example 131, 1-cyclopentyl-6-{(3,4-trans)-4-methyl-1-[(2-methyl-1,3-thiazol-5-yl)methyl]pyrrolidin-3-yl}-1,5-dihydro-4H-pyrazolo[3,4-d]pyrimidin-4-one]",41.9 nM
15,"CC(C)c1csc(CN2C[C@@H](C)[C@H](c3nc4c(cnn4C4CCCC4)c(=O)[nH]3)C2)n1 (racemic) [Example 132, 1-cyclopentyl-6-{(3,4-trans)-1-[(4-isopropyl-1,3-thiazol-2-yl)methyl]-4-methylpyrrolidin-3-yl}-1,5-dihydro-4H-pyrazolo[3,4-d]pyrimidin-4-one]",37.5 nM
16,"Cc1ccc(CN2C[C@@H](C)[C@H](c3nc4c(cnn4C4CCCC4)c(=O)[nH]3)C2)c(F)c1F (racemic) [Example 134, 1-cyclopentyl-6-[(3,4-trans)-1-(2,3-difluoro-4-methylbenzyl)-4-methylpyrrolidin-3-yl]-1,5-dihydro-4H-pyrazolo[3,4-d]pyrimidin-4-one]",93.5 nM
17,"C[C@@H]1CN(Cc2cccc(-n3cccn3)n2)C[C@H]1c1nc2c(cnn2C2CCCC2)c(=O)[nH]1 (racemic) [Example 135, 1-cyclopentyl-6-[(3,4-trans)-4-methyl-1-{[6-(1H-pyrazol-1-yl)pyridin-2-yl]methyl}pyrrolidin-3-yl]-1,5-dihydro-4H-pyrazolo[3,4-d]pyrimidin-4-one]",91.6 nM
18,"Cc1ccc(CN2C[C@@H](C)[C@H](c3nc4c(cnn4C4CCCC4)c(=O)[nH]3)C2)cc1 (racemic) [Example 136, 1-cyclopentyl-6-[(3,4-trans)-4-methyl-1-(4-methylbenzyl)pyrrolidin-3-yl]-1,5-dihydro-4H-pyrazolo[3,4-d]pyrimidin-4-one]",132 nM
19,"C[C@@H]1CN(Cc2ccc3ccccc3c2)C[C@H]1c1nc2c(cnn2C2CCCC2)c(=O)[nH]1 (racemic) [Example 137, 1-cyclopentyl-6-[(3,4-trans)-4-methyl-1-(2-naphthylmethyl)pyrrolidin-3-yl]-1,5-dihydro-4H-pyrazolo[3,4-d]pyrimidin-4-one]",54.5 nM
20,"COc1ncccc1CN1C[C@@H](C)[C@H](c2nc3c(cnn3C3CCCC3)c(=O)[nH]2)C1 (racemic) [Example 138, 1-cyclopentyl-6-{(3,4-trans}-1-[(2-methoxypyridin-3-yl)methyl]-4-methylpyrrolidin-3-yl}-1,5-dihydro-4H-pyrazolo[3,4-d]pyrimidin-4-one]",47.7 nM
21,"CCOc1ccccc1CN1C[C@@H](C)[C@H](c2nc3c(cnn3C3CCCC3)c(=O)[nH]2)C1 (racemic) [Example 139, 1-cyclopentyl-6-[(3,4-trans)-1-(2-ethoxybenzyl)-4-methylpyrrolidin-3-yl]-1,5-dihydro-4H-pyrazolo[3,4-d]pyrimidin-4-one]",97.5 nM
22,"C[C@@H]1CN(Cc2ccc(-n3cncn3)cc2)C[C@H]1c1nc2c(cnn2C2CCCC2)c(=O)[nH]1 (racemic) [Example 140, 1-cyclopentyl-6-{(3,4-trans)-4-methyl-1-[4-(1H-1,2,4-triazol-1-yl)benzyl]pyrrolidin-3-yl}-1,5-dihydro-4H-pyrazolo[3,4-d]pyrimidin-4-one]",26.8 nM
23,"COc1cc(CN2C[C@@H](C)[C@H](c3nc4c(cnn4C4CCCC4)c(=O)[nH]3)C2)ccc1C (racemic) [Example 141, 1-cyclopentyl-6-[(3,4-trans)-1-(3-methoxy-4-methylbenzyl)-4-methylpyrrolidin-3-yl]-1,5-dihydro-4H-pyrazolo[3,4-d]pyrimidin-4-one]",53.1 nM
24,"C[C@@H]1CN(Cc2cccc3ccccc23)C[C@H]1c1nc2c(cnn2C2CCCC2)c(=O)[nH]1 (racemic) [Example 142, 1-cyclopentyl-6-[(3,4-trans)-4-methyl-1-(1-naphthylmethyl)pyrrolidin-3-yl]-1,5-dihydro-4H-pyrazolo[3,4-d]pyrimidin-4-one]",47.5 nM
25,"COc1ccc(OC)c(CN2C[C@@H](C)[C@H](c3nc4c(cnn4C4CCCC4)c(=O)[nH]3)C2)c1 (racemic) [Example 144, 1-cyclopentyl-6-[(3,4-trans)-1-(2,5-dimethoxybenzyl)-4-methylpyrrolidin-3-yl]-1,5-dihydro-4H-pyrazolo[3,4-d]pyrimidin-4-one]",99.6 nM
26,"Cc1cc(CN2C[C@@H](C)[C@H](c3nc4c(cnn4C4CCCC4)c(=O)[nH]3)C2)no1 (racemic) [Example 145, 1-cyclopentyl-6-{(3,4-trans)-4-methyl-1-[(5-methylisoxazol-3-yl)methyl]pyrrolidin-3-yl}-1,5-dihydro-4H-pyrazolo[3,4-d]pyrimidin-4-one]",77.4 nM
